Data from patent US20080262266A1, “Method for the Production of Xylyendiamine” (BASF SE, priority 2005, published 2008).
Read-outs that look alike come from different tables or passages of the source.

Tests used:
[1] = solubility of isophthalonitrile (IPN) in organic solvents; format: physicochemical; details: 60° C.
[2] = 70° C.; cited from earlier work

## N#Cc1cccc(C#N)c1 [IPN, 1,3-dicyanobenzene]
[1]; MXDA
  solubility of IPN in MXDA: 15 % by weight
[1]; THF
  solubility of IPN in THF: ~19 % by weight
[1]; methanol
  solubility of IPN in methanol: 18 % by weight
[2]
  solubility of IPN in MXDA: about 20 % by weight
